# Source: patent US6632621B1, “G protein-coupled receptor-like receptors and modulators thereof” (priority 1999, dated 2003)
# *1 amine or outer side, *2 acyl side, *3 side chain or, on linkers, in order; H or OH if unused. Where no end group is shown, it is not given here. [ ]: non-standard residue; d: D form. Tyr(125I) = 125I-iodinated Tyr, O=C([C@H](Cc1ccc(O[*:3])c([125I])c1)N[*:1])[*:2]; Tyr(3-I) = N[C@@H](Cc1ccc(O)c(I)c1)C(=O)O
# T1: CEGPCR4 receptor (Caenorhabditis elegans, UniProt A0A078BTK0)
# T1 sequence (A0A078BTK0 1-376): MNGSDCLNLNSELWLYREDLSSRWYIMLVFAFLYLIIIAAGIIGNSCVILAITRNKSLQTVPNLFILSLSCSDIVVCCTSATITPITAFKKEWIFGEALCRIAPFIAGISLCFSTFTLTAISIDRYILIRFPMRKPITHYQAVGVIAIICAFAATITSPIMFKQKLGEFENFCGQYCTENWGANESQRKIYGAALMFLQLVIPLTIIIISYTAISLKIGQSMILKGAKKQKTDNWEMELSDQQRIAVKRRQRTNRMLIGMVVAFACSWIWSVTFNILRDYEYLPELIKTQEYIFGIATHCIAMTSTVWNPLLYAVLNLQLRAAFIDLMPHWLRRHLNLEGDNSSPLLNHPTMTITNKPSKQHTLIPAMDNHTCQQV
# T2: CEGPCR12h receptor (Caenorhabditis elegans, UniProt Q20275)
# T2 sequence (Q20275 1-402): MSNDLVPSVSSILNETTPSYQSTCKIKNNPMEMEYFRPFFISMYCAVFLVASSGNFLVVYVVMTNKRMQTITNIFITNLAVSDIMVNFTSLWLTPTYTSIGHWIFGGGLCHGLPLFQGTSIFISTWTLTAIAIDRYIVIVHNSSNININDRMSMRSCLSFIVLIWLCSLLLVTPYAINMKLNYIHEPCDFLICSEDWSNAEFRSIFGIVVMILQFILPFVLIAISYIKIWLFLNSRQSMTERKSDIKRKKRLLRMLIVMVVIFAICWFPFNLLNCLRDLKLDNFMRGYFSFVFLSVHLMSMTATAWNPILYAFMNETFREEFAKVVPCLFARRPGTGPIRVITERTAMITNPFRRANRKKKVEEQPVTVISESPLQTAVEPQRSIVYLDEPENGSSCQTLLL
# T3: CEGPCR4 (C. elegans)
# T3 construct: Expressed in CHO cells; also called CEGPCR4 receptor; CEGPCR4/CHO membranes
# T3 chain: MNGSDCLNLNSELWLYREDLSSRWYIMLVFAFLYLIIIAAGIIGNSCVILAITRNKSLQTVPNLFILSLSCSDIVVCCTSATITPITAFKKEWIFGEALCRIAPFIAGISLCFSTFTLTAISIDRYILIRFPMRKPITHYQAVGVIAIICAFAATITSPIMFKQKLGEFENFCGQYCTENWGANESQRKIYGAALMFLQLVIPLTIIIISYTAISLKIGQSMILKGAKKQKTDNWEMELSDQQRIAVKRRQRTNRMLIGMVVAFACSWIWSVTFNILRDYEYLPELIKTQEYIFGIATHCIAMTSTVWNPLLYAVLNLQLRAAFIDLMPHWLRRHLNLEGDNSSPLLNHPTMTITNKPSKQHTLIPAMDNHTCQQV
# T4: CEGPCR7 (C. elegans), Q18534
# T4 chain: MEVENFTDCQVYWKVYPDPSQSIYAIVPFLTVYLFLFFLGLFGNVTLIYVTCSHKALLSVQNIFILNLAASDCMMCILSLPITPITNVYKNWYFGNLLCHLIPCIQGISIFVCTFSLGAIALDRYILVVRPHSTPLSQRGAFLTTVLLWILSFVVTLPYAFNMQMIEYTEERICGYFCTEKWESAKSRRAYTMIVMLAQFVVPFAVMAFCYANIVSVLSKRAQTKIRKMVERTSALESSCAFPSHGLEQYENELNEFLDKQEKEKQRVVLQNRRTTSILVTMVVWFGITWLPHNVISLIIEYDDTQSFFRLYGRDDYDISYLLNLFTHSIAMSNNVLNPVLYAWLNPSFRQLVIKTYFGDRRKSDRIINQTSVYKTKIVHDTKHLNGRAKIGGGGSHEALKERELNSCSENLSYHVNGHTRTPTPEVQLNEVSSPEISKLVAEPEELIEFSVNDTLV
# Legend:
# [1] = molecular target: T1, CEGPCR4 receptor; test: Flp18 binding assay: [125I]YDVPGVLRFamide binding and competition on CEGPCR4/CHO membranes; set-up: species or system C. elegans; conditions: in words
# Method: A peptide ligand screening assay that measures ligand binding to a suitable GPCR-like receptor according to the invention is exemplified using a modified C. elegans Flp18 peptide ligand.
# Membranes for use in the assay are derived from cells stably transfected with a GPCR-like receptor expression construct. The transfected cells are grown in 10 cm dishes to subconfluence, rinsed once with 5 ml of ice-cold Ca^2+/Mg^2+—free PBS, and scraped into 5 ml of the same buffer. Cells are pelleted by centrifugation (500×g, 5 minutes), resuspended in 25 mM Tris, pH 7.5, 5 mM EDTA, 5 mM EDTA, pH 7.5 (TEE), and frozen in liquid nitrogen. After thawing, the cells are homogenized using a Dounce homogenizer (one ml TEE per plate of cells), and centrifuged at 1,000×g for 5 minutes to remove nuclei and unbroken cells.
# The homogenate supernatant is centrifuged at 20,000×g for 20 minutes to isolate the membrane fraction, and the membrane pellet is washed once with TEE and resuspended in binding buffer (20 mM HEPES, pH 7.5, 150 mM NaCl, 10 mM MgCl2, 1 mM EDTA). […]
# The peptide ligand screening assay is facilitated by use of 96-well plates Millipore Multiscreen® filtration plates (FB opaque 1.0 μM glass fiber type B, catalog number MAFBNOB50). […] The following day, the plate is counted in a Microbeta® scintillation counter.
# [2] = molecular target: T2, CEGPCR12h receptor; test: [35S]GTPγS binding assay, CEGPCR12h expressed in CHO cells; type: biochemical, C. elegans
# Method: Recombinant pCR3.1 clones encoding invertebrate GPCR-like receptors were transformed into wild-type CHO-K1 cells and functional expression was achieved using a temperature-shift incubation protocol. The CHO-K1 cells were cultured at 37° C. in a humidified atmosphere of 5% CO2 in air in DMEM medium supplemented with 10% heat-inactivated fetal bovine serum (i.e., FBS), 10 μg/ml gentamicin, and 0.1 mM nonessential amino acids to give complete DMEM medium. Additionally, for incubations at temperatures lower than 37° C., the medium was fortified with 10 mM HEPES (pH 7.4). Cells were transfected with recombinant pCR3.1 clones containing GPCR-like receptor DNAs, using LipofectAMINE PLUS™, essentially according to the manufacturer's instructions. […] In separate plastic tubes, PLUS (20 μl/plate; Life Technologies) was added to 0.75 ml/plate of recombinant plasmid DNA in OptiMEM (5 μg/plate; Gibco/BRL—Life Technologies), mixed and incubated at room temperature for 15 minutes. Separately, LipofectAMINE (30 μl/plate) was mixed with 0.75 ml OptiMEM and added to the pre-complexed DNA/PLUS mixture and incubated at room temperature for 15 minutes. The culture medium was then replaced with serum-free transfection medium (DMEM, 5 ml/plate). The DNA-PLUS-LipofectAMINE complex was then added to the plates (1.5 ml/plate) and mixed gently into the medium, followed by a 3 hour incubation at 37° C. in 5% CO2. At this time, the medium was supplemented with complete DMEM medium containing 20% FBS (6.5 ml/plate) and incubation was continued at 37° C. in 5% CO2. After a total of 24 hours at 37° C. in 5% CO2, the medium was replaced with complete DMEM medium fortified with 10 mM HEPES (10 ml/plate) and the cells were moved to an incubator maintained at 28-30° C. in a humidified atmosphere of 5% CO2 in air. The incubation continued for an additional 24 hours, typically at the lower temperature indicated above. A plasmid encoding Green Fluorescent Protein (i.e., GFP, 4 μg/plate) was used for transient GFP expression in CHO-K1 cells to estimate the transfection yields under the same conditions as used for GPCR-like receptor polynucleotides.
# To assess expression, membranes were prepared from transfected CHO-K1 cells. Transfected cells were washed once with ice-cold Dulbecco's phosphate-buffered saline (i.e., PBS), 5 ml per 10 cm plate, and the cells were scraped into 5 ml of the same buffer. Cell suspensions from multiple plates were combined and centrifuged at 500×g for 10 minutes at 4° C. The cell pellet was reconstituted in ice-cold TEE (25 mM Tris, pH 7.4, 5 mM EGTA, 5 mM EDTA). Convenient aliquots were snap-frozen in liquid nitrogen and stored at −70° C. After thawing, the cells were homogenized and centrifuged at 500×g for 5 minutes at 4° C. to pellet nuclei and unbroken cells. Tile supernatant was centrifuged at 47,000×g for 30 minutes at 4° C. The membrane pellet was washed once with TEE, resuspended in 20 mM HEPES, pH 7.4, 100 mM NaCl, 10 mM MgCl2, 1 mM EDTA (assay buffer), distributed into aliquots of 0.5-1.0 ml, and frozen in liquid nitrogen. Membrane aliquots were stored at −70° C. Membrane protein concentration was determined using the BCA Protein Assay Reagent from Pierce (Rockford, Ill.), with bovine serum albumin (i.e., BSA) as a standard.
# Aliquots of cell membranes prepared as described above and stored at −70° C. were thawed, homogenized, and diluted into buffer containing 20 mM HEPES, pH 7.4, 10 mM MgCl2, 1 mM EDTA, and 100 mM NaCl at a concentration of 10-50 μg/ml. Reaction mixtures were prepared in 96-well polypropylene plate, Nunc. Twenty microliters of a 10× putative modulator compound (including but not limited to potential peptide ligands) solution or a water control (20 μl), 18.2 µM GDP (0.11 ml, 10 μM final concentration), and a membrane preparation were mixed and placed on ice. The modulator/ligand-GDP-membrane mixtures were incubated for 20 minutes at room temperature on a shaking platform and then placed on ice.
# [3] = molecular target: T1, CEGPCR4 receptor; test: [35S]GTPγS binding assay, membranes of CHO cells transfected with CEGPCR4; type: biochemical, C. elegans
# Method: Recombinant pCR3.1 clones encoding invertebrate GPCR-like receptors were transformed into wild-type CHO-K1 cells and functional expression was achieved using a temperature-shift incubation protocol. The CHO-K1 cells were cultured at 37° C. in a humidified atmosphere of 5% CO2 in air in DMEM medium supplemented with 10% heat-inactivated fetal bovine serum (i.e., FBS), 10 μg/ml gentamicin, and 0.1 mM nonessential amino acids to give complete DMEM medium. Additionally, for incubations at temperatures lower than 37° C., the medium was fortified with 10 mM HEPES (pH 7.4). Cells were transfected with recombinant pCR3.1 clones containing GPCR-like receptor DNAs, using LipofectAMINE PLUS™, essentially according to the manufacturer's instructions. […] In separate plastic tubes, PLUS (20 μl/plate; Life Technologies) was added to 0.75 ml/plate of recombinant plasmid DNA in OptiMEM (5 μg/plate; Gibco/BRL—Life Technologies), mixed and incubated at room temperature for 15 minutes. Separately, LipofectAMINE (30 μl/plate) was mixed with 0.75 ml OptiMEM and added to the pre-complexed DNA/PLUS mixture and incubated at room temperature for 15 minutes. […]
# To assess expression, membranes were prepared from transfected CHO-K1 cells. […] Membrane protein concentration was determined using the BCA Protein Assay Reagent from Pierce (Rockford, Ill.), with bovine serum albumin (i.e., BSA) as a standard. […]
# [4] = tested on: CEGPCR12c; test: [35S]GTPγS binding assay, membranes of CHO cells transfected with CEGPCR12c; type: biochemical, C. elegans
# [5] = molecular target: T3, CEGPCR4; test: radioligand binding to CEGPCR4/CHO membranes
# [6] = molecular target: T4, CEGPCR7 (C. elegans), Q18534; test: cell-based or functional assay
# [7] = membranes from cells transfected and maintained at 37° C.
# [8] = temperature shift to 28° C. 24 hours after transfection
molecule,measurement,setting,value
[^125I-Y]DVPGVLRF-NH2 ([Tyr(125I)]DVPGVLRF-NH2),"Kd, binding to the CEGPCR4/CHO membranes",[1],subnanomolar range
PDVDHVFLRF-NH2 [PDVDHVFLRF-NH2],EC50,[2]; EC50,330 nM
same,EC50,"[2]; EC50 range, Table 11, one range for the group, results apply to all CEGPCR12 isoforms",300 to 500 nM
same,receptor activation by matched ligand,[3]; [7],not detectably activated
same,ligand-induced [35S]GTPγS binding,[3]; [8],significant stimulation
same,receptor activation by matched ligand,[4]; [7],not detectably activated
same,ligand-induced [35S]GTPγS binding,[4]; [8],significant stimulation
"[Tyr(3-I)]DVPGVLRF-NH2 (N-terminus assumed; SMILES CC(C)C[C@H](NC(=O)[C@@H](NC(=O)CNC(=O)[C@@H]1CCCN1C(=O)[C@@H](NC(=O)[C@H](CC(=O)O)NC(=O)[C@@H](N)Cc1ccc(O)c(I)c1)C(C)C)C(C)C)C(=O)N[C@@H](CCCNC(=N)N)C(=O)N[C@@H](Cc1ccccc1)C(N)=O, Synthetic flp18 analog; the radioiodinated form is treated as the same molecule) [3-Iodo-Y-DVPGVLRF-NH2]",Kd,[5],< 1 nM
GLGPRPLRF-NH2 […-NH2 (AF9)],"AF9-induced [35S]GTPγS binding, constant 37° C. (third experiment)",[6],1.4 fold
